According to a melting point compilation (Tetko et al.; mined from patent text by program, amines drawn as free bases though some values may be those of a salt):

Structure (SMILES)	melting point [°C]
CCOC(=O)/C(C#N)=C(\N)C(CC)CC	87
Cc1ccc(=O)n(-c2cccc(C(F)(F)F)c2)c1	95
CS(=O)(=O)N=C(NCC(=O)O)Nc1ccc(C#N)cc1	170
N=c1sc2cc(OC(F)(F)F)ccc2n1CCSc1ccccn1	104
CCCCCCCCCCCCCCOc1ccc(C(=O)Oc2ccc(-c3ncc(C(=O)O[C@@H](C)CCCCCC)cn3)cc2)cc1	85.4
CCCCN(CCCC)c1ccc2cc(Cl)cnc2c1C#N	112
CN(C)C1(Cc2ccccc2)CCC(O)(c2cc3ccccc3n2C)CC1 (centres undefined)	105 to 107
O=C(CCCCCCCCCCCNC(=O)OCc1ccccc1)OC(=O)CCCCCCCCCCCNC(=O)OCc1ccccc1	72 to 73
CC(=O)N(C(C)=O)c1ccc2c(c1)C(C(Cl)(Cl)Cl)OC(C(Cl)(Cl)Cl)O2 (centres undefined)	147 to 148
CC(C)Cn1c(=O)n(C)c(=O)c2c(I)n(Cc3cccc4ccccc34)cc21	140 to 142
O=C1C(O)=C([N+](=O)[O-])C(=O)c2ccc(Br)cc21	172
Cc1nn(C(N)=O)c2c1C(=O)CC(C)(C)C2	173 to 175
CN(C)Cc1nc(-c2ncn3c2CN(C)C(=O)c2c(Cl)cccc2-3)no1	152 to 153
N#Cc1nn(-c2c(Cl)cc(C(F)(F)F)cc2Cl)cc1C1(C(F)(F)C(F)(F)F)CC1	105 to 106
COC(=O)CCCCCCCCOC1OC(CO)C(OC2OC(C)C(O)C(O)C2O)C(O)C1NC(C)=O (centres undefined)	145 to 146
CC(C)CN(Cc1nc(-c2ncn3c2CN(C)C(=O)c2c(Cl)cccc2-3)no1)CC(C)C	125 to 128
CC(C)(c1ccc(O)cc1)c1ccc(O)c(C(C)(C)c2ccc(O)cc2)c1	190
NC(=O)c1ccc2c(c1)C(=C(Cl)Cl)OC(=C(Cl)Cl)O2	217 to 218
NS(=O)(=O)c1ccc(-c2nc(-c3cnn4c(C(F)(F)F)cc(-c5ccc(C(F)(F)F)cc5)nc34)no2)s1	272
CC(C)(CO)N1CC(COc2cccc(Cl)c2)OC1=O (centres undefined)	81 to 82
O=c1[nH]nc(-c2ccc(-n3ccnc3)cc2)c2ncccc12	376 to 378
N#Cc1ccc2oc3c(c2c1)CCC(C(=O)O)C3 (centres undefined)	185 to 190
CC(C)(C)NCC(O)COc1ccc(-c2nc(C#N)c[nH]2)cc1 (centres undefined)	174 to 177
Cc1oc(C=Cc2cccc(C(F)(F)F)c2)nc1CC#N	107 to 108
N#CC(C#N)=Cc1ccc(C=O)cc1	142
C/C(=C(\C#N)C(N)=S)N1CCCSCC1	138 to 142

Structure (SMILES)	melting point [°C]
CC(=O)C1=CCC2C3CCC4CC(O)C(Cl)CC4(C)C3CCC12C (centres undefined)	246 to 252
O=C1OC(=O)c2c(F)cc(F)cc21	87 to 89
COc1ccc(S(N)(=O)=O)cc1CC(C)=O	138 to 139
Cn1nc(C#N)c(Nc2ccc(Cl)cc2[N+](=O)[O-])n1	166 to 168
CC(C)(C)C(NC(=O)c1ccc(Cl)cc1)NC(=NC#N)NCc1ccccn1 (centres undefined)	184 to 185
CN(CCSc1ccc(C=C2SC(=O)NC2=O)cc1)c1nc2ccccc2o1	189
O=C(O)CSc1nccn1Cc1cc(F)cc(F)c1	101 to 103
FC(F)(F)c1nnc2nc(-c3ccccc3)c3cc(Cl)ccc3n12	241 to 242
O=C1CCc2cc(O)ccc21	185 to 187
CCCCCOC(=O)C1CC(Br)=NN1c1ncccc1Cl (centres undefined)	39 to 42
CCOC(=O)c1ccc2[nH]c(C)c(SC)c2c1	127 to 130
O=C1C=C(NC(=O)C(=O)c2cn(Cc3ccc(Cl)cc3)c3cccc(CO)c23)CO1	238 to 240
CCc1nc(N)nc(N)c1-c1cccc(Cl)c1Cl	228 to 230
O=S(=O)(NC1CCCCC1)c1ccc(Nc2nccc(Cl)n2)cc1	202 to 204
CN(C)CCc1c[nH]c2ccc(C(N)=S)cc12	155
COc1cc(C(C)O)c(F)cc1Cl (centres undefined)	68.5 to 69.5
NC(=O)N(O)Cc1cc(Br)cs1	162 to 164
O=Cc1cccc2ncc(-c3ccccc3)cc12	122 to 124
Cn1ccc2c(N3CCN(CC4CCc5ccccc5N4C(=O)C4CCCCC4)CC3)cccc21 (centres undefined)	66 to 70
C=CCCCCN1C(=O)c2ccccc2C1=O	17 to 20
Cc1ccc(NC(Nc2ccc(C)cc2)Nc2ccc(C)cc2)cc1	130 to 131
CN(C)C(=O)c1ccncc1-c1nc(-c2ccc(Cl)cc2)cs1	195
CN(C)CCNC(=O)Cn1c(-c2ccc(Br)cc2)nc2cccnc21	195 to 197
O=c1[nH]c(COc2cccc(Cl)c2Cl)nc2nccnc12	219 to 220
CC1Cc2ccc([N+](=O)[O-])cc2C=N1 (centres undefined)	110 to 112
CC(CSC(=O)c1ccccc1)C(=O)N(CC(=O)O)C1Cc2ccccc2C1 (centres undefined)	113 to 115

Next, values leading:

melting point [°C]	Structure (SMILES)
143 to 144	Cc1cc(-c2[nH]c3ccccc3c2C)cc(C)c1O
167 to 169	O=c1[nH]c2c(Cl)cccc2c(=O)n1CCCN1CC2CCC(C1)N2c1ccc(Cl)cc1
> 300	CCCn1c(=O)c2[nH]c(-c3cc(C)n(CC(=O)Nc4ccc(N(C)C)cc4)n3)nc2n(CCC)c1=O
176 to 179	O=C(c1ccc2c(c1)[C@@H](O)[C@H](Br)CCO2)c1ccccc1C(F)(F)F (relative stereo)
92 to 94	O=c1c(Cl)c(Cl)cnn1-c1cccc(COc2ccccc2)c1
126 to 127	COC(=O)C(C)(C)C(Cc1ccc(OC)cc1)NS(=O)(=O)c1ccc(C)cc1 (centres undefined)
161 to 162	COc1cc(CCN(C)Cc2ccc(OC)c(OC)c2)ccc1NC(=O)c1cccc2c(=O)c3cccc(F)c3[nH]c12
129 to 130	Cc1oc(C2CC2)nc1COc1ccc(CC(OC(C)C)C(=O)O)c2ccccc12 (centres undefined)
196 to 197	Cc1[nH]n(C(C)(C)C)c2nc(Cc3ccccc3)nc(=O)c1-2
161 to 162	CN1C(=O)CCC2(C)c3ccc(Sc4cccc5ccccc45)cc3CCC12 (single isomer, unassigned; (+))
259 to 263	O=C(Nc1ccc(Cl)c2c(-n3ccnc3)ccnc12)c1c(Cl)cccc1Cl
190 to 202	O=C(O)CCc1c[nH]c2c(C(=O)c3ccc(Cl)cc3)cccc12
233	O=C(O)c1cnn2c(C(F)F)cc(-c3ccc(C(F)(F)F)c(F)c3)nc12
239 to 242	CC(C)(OCc1cc(-c2ccc(Cl)cc2)no1)C(=O)N1CCCCC1
205 to 206	O=C(O)C1CCN(c2nnc(NCc3ccc4c(c3)OCO4)c3cnccc23)CC1
198	O=C([C@H](O)CS(=O)(=O)c1ccc2cc(Cl)ccc2c1)N1CCN(N2CCCCC2=O)CC1
100	O=C(O)CCOc1ccccc1CNC(=O)C1Cc2ccccc2N1S(=O)(=O)c1ccc(-c2cccc(C(F)(F)F)c2)cc1 (centres undefined)
140 to 142	O=C(c1ccccc1C(F)(F)F)N1CCCN(CC2=Nc3cccc4c(=O)[nH]nc(c34)N2)CC1
114 to 116	Cc1cccc(N2CCN(CCCCc3ccc(C4CCC(=O)N4)cc3)CC2)c1 (centres undefined)
164 to 165	O=C(O)c1cccc(-c2ccc3c(c2)C(Nc2ccc(Cl)cc2Cl)CO3)c1 (centres undefined)
148 to 150	CC(C)(CO)COc1ccc(NC(=O)c2csc3c2CCCC3)cc1C#N
158 to 159	O=C(O)c1ccccc1COc1cccc(Br)c1
240 to 246	O=c1[nH]cnc2ccc(-c3cccnc3)cc12
265 to 267	CCn1cc(C(=O)O)c(=O)c2cc(F)c(Cl)nc21

melting point [°C]	Structure (SMILES)
181 to 183	Cc1ccc(NC(=O)Cc2ccccc2C(=O)O)cc1/C=C/c1nc(C(C)C)cs1
167 to 172	CC(=O)N1CCc2c(sc(C)c2CCN2CCC(c3noc4ccc(F)cc34)CC2)C1
187 to 189	COC(=O)c1ccc(C(=O)CC(=O)/C=C/c2ccc(O)c(OC)c2)cc1
182 to 185	O=C1CN(Cc2ccccc2)c2cc(-c3cccc(Cl)c3)ccc2N1
65 to 68	CNCCc1ccc2[nH]c(C)c(C(=O)OCc3ccccc3)c2c1
62 to 64	Cc1cc(OCc2ccccc2)cc(C)c1CC(=O)OCc1ccccc1
215 to 217	O=C(O)c1cc([N+](=O)[O-])cc([N+](=O)[O-])c1Nc1cc(-c2ccccc2)ccc1O
44 to 47	CCCOc1ccc(C(=O)OC)cc1C(C)=O
228 to 229	COC(=O)c1cc(C(=O)N2CCCC(=O)C2)c2cc(Cc3ccc(F)cc3)cnc2c1O
85 to 86	CCOC(=O)Cc1c(CCc2ccc(OC)cc2)oc2ccc(C#N)cc12
164 to 165	O=C(Nc1ccc2[nH]c(CO)cc2c1)c1cc2ccccc2o1
83 to 85	O=C(NCCCCSc1ccncc1)c1ccccc1O
240	O=C(OCC(OC(=O)c1ccccc1)c1nc2c(C(F)(F)F)cccc2c(O)c1C(=O)Nc1nccs1)c1ccccc1 (centres undefined)
143 to 145	Nc1ccc(C(=O)c2ccccc2)cc1CC(=O)O
142 to 146	CCCOc1ccc(CN2CCC(C(N)=O)CC2)cc1
155 to 156	COCCNC(=O)CC1CN=C(c2cc3cc(Oc4ccc(S(C)(=O)=O)nc4)ccc3[nH]2)S1 (centres undefined)
153	CN(C)CC(=O)Nc1cccc2nc(N[C@@H]3CCc4ccccc43)ccc12
208 to 210	N[C@H](Cc1ccc(OC(=O)OCc2ccccc2)cc1)C(=O)O
133 to 134	O=C(CCBr)OCN1C(=O)NC(c2ccccc2)(c2ccccc2)C1=O
254 to 256	O=C1CCC(N2Cc3c(CNC(=O)c4ccccn4)cccc3C2=O)C(=O)N1 (centres undefined)
200 to 207	COC(=O)COc1ccc2c(c1)S(=O)(=O)C=C(c1c(O)c3cc(F)ccc3n(Cc3ccc(F)cc3)c1=O)N2
159 to 161	COCCNC(=O)c1nc2cc(NC(=O)c3c(C(=O)N4CCC4)cnn3C)ccn2n1
206	N=C(NO)c1ccc2c(c1)COC(N[C@@H]1CCc3ccccc31)=N2
